Experiments:
[1] = without propylene glycol; cited from earlier work
[2] = Relative dissolution of propyl gallate depending on sequence of mixing steps; assay type: physicochemical
Text: In the case where glycerol is employed, it may be necessary to add some heat to the solution in order to achieve full dissolution of the propyl gallate. Further, the sequence of the mixing steps and its effect on the relative dissolution of propyl gallate when all component concentrations and temperature are kept constant, is as follows: • Addition of propylene glycol to propyl gallate, then addition of saline or distilled water: fast reaction (high rate of dissolution of propyl gallate); • Addition of saline/distilled water to propyl gallate, then addition of propylene glycol: slow reaction (low rate of dissolution of propyl gallate); • Addition of propylene glycol to saline/distilled water, then addition of propyl gallate: fast reaction (high rate of dissolution of propyl gallate); • Employing glycerol instead of propylene glycol: slow reaction (low rate of dissolution of propyl gallate).

SMILES: CCCOC(=O)c1cc(O)c(O)c(O)c1 [PG, propyl 3,4,5-trihydroxybenzoate]
- solubility in water (in words) [1]: only slightly soluble
- rate of dissolution of propyl gallate ([2]; Addition of propylene glycol to propyl gallate, then addition of saline or distilled water, concentrations and temperature constant): fast reaction
- rate of dissolution of propyl gallate ([2]; Addition of propylene glycol to saline/distilled water, then addition of propyl gallate): fast reaction
- rate of dissolution of propyl gallate ([2]; Addition of saline/distilled water to propyl gallate, then addition of propylene glycol): slow reaction
- rate of dissolution of propyl gallate ([2]; Employing glycerol instead of propylene glycol): slow reaction
